Usually IC50 stands for the point on the concentration scale where inhibition reaches its midpoint.

In publication PMC4500090 (Biochemical and biophysical research communications, 2015) one finds IC50 data, which are given here for four molecules.

Test [1] deals with T1, MEKK2 (Homo sapiens, UniProt Q9Y2U5).
T1 sequence (Q9Y2U5 1-619): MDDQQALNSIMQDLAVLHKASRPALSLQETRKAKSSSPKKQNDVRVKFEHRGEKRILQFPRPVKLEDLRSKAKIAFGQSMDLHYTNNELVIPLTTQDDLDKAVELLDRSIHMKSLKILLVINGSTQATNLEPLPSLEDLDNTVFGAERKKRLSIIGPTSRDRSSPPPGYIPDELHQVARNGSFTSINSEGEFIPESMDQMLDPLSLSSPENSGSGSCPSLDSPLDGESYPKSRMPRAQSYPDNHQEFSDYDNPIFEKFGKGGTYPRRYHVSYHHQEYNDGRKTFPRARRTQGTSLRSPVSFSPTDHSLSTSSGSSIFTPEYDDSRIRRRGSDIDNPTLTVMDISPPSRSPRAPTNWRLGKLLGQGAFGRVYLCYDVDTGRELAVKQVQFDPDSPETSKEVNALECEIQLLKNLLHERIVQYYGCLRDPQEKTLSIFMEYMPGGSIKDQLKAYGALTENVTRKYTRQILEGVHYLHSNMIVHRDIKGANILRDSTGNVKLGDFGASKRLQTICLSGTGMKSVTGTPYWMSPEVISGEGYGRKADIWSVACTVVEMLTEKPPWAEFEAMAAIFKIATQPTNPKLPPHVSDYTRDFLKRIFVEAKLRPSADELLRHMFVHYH
Put plainly: MEKK2 intrinsic ATPase activity assay. In kind it is biochemical.

The target in test [2] is T1, MEKK2. The experiment in a line: MEKK2 transphosphorylation slot blot assay using MKK6 as a substrate. Type of test: biochemical.
The subject of the next test is Aurora A. The following applies: read-out: IC50 Aurora A; cited from earlier work.
Test [3] deals with Aurora B. To be noted: read-out: IC50 Aurora B; cited from earlier work.
For another test, the system named is JAK3. The following applies: read-out: IC50 JAK3; cited from earlier work.
Another test relates to Abl (T315I) mutant. The following applies: read-out: IC50 Abl (T315I) mutant; cited from earlier work.
In another test the test system is 10 other kinases. The following applies: read-out: IC50 10 other kinases; cited from earlier work.
Test [4] deals with Aurora B. To be noted: read-out: IC50 Aurora B; cited from earlier work. The source holds these as a separate data set.
The subject of a further test is CDK1. The following applies: read-out: IC50 CDK1; cited from earlier work.
In the next test the test system is CDK2. To be noted: read-out: IC50 CDK2; cited from earlier work.
A further test concerns CDK3. The following applies: read-out: IC50 CDK3; cited from earlier work.

SMILES strings stand for the structures. Read-outs that look alike come from different tables or passages of the source.

Take `O=C(Nc1c[nH]nc1-c1nc2ccc(CN3CCOCC3)cc2[nH]1)NC1CC1` [AT9283]: the IC50 against MEKK2 [1] is […]; at MEKK2 [2], 4.7 ± 0.9 nM; with Aurora A, […]; in the test with Aurora B [3], […]; in the test on JAK3 it was […]; in the test with Abl (T315I) mutant it was 4 nM. Further, the half-inhibitory concentration (IC50) in the test on 10 other kinases is […].
For `NC(=O)Nc1cc(-c2cccc(F)c2)sc1C(=O)N[C@H]1CCCNC1` [AZD7762], the results for the IC50 at MEKK2 [1] and on MEKK2 [2] were 20 ± 7 nM and 14 ± 2 nM, respectively.
`CCS(=O)(=O)Nc1ccc2c(c1)/C(=C(/Nc1ccc(CN3CCCCC3)cc1)c1ccccc1)C(=O)N2` [Hesperadin]: the figures for the IC50 against MEKK2 [1], on MEKK2 [2] and with Aurora B [4] were 60 ± 25 nM, 34 ± 11 nM and 250 nM, respectively.
Regarding `Nc1nc(Nc2ccc(S(N)(=O)=O)cc2)nn1C(=O)c1c(F)cccc1F` [JNJ-7706621], the 50% inhibitory concentration (IC50) against MEKK2 [1] is 24 ± 8 nM; against MEKK2 [2], 17 ± 2 nM; with CDK1 it was […]; with CDK2, […]; in the test on CDK3, […].
